Test results: patent publication US8637681B2, “Pyrrolyl substituted dihydroindol-2-one derivatives, preparation methods and uses thereof” (Qilu Pharmaceutical Co., Ltd., priority 2010, dated 2014)
Several values for one entry are separate records, joined by “and”; a condition that tells them apart may be missing. Equal entries are not always repeated.

Columns and labels:
[1] = test system: arterial ring angiogenesis in rats; assay: Inhibitory actions on arterial ring angiogenesis in rats; type: cell-based; details: Rattus norvegicus, area covered by micrangiums vs control well, read-out: Inhibitory rate (%); for inhibition at 0.2 µg/mL: 0.2 μg/ml; for inhibition at 1 µg/mL: 1 μg/ml; for inhibition at 5 µg/mL: 5 μg/ml
Description: This experiment was conducted by referring to the method described by R. F. Nicosia et al (Nicosia, R. F., et al. Am J Pathol., 1997, 151, 1379-1386). Rats were executed by cervical dislocation. The thoracic aorta was carefully separated, and placed in a container with physiological saline. The excess tissues were carefully cut off. The blood vessels were cut with a pair of ophthalmic scissors to form 1 mm thick vascular ring slices. To a pre-cooled 96-well cell culture plate, one separated vascular ring was placed in the center of each well. 70 μl of pre-molten Matrigel was carefully added to cover the vascular ring, which was incubated at 37° C. for 1 h so as to solidify it. […] The sample was placed in incubator for conventional culture, and each compound was tested at least in two repeated wells, and each test was repeated twice. […] The fresh culture medium was replaced every 3 days, and the drug was changed at the same time. The survival status of vascular rings was observed under microscope, and pictures were taken at the same time. Image Pro Plus software was used to calculate the area covered by micrangiums. The average inhibition rate was calculated by using the formula: inhibition rate (%)=(area of control well−area of drug well)/area of control well×100%.

[2] = Cytotoxicity test (SRB), Hela; type: cell-based; details: human, Hela cervical cancer cells
Description: Cytotoxicity of the compounds of the present invention was tested with human non-small cell lung cancer cells A549, human cervical cancer Hela cells, human skin cancer cells A431. The test was performed by referring to the method described by Rusnak et al (Rusnak D. W., et al., Cell Prolif., 2007, 40, 580-94). […] Trypsin/ethylenediamine tetraacetic acid (EDTA) were used to harvest cells in cell culture bottle. The cells were added to a 96-well cell culture plate, 4000/well (0.1 ml medium), adhering wall overnight, 0.1 ml of the diluted solution of the compounds to be tested was added, the final concentration of DMSO was 0.25%. The cell culture plate was incubated at 37° C., 5% CO2 conditions for 72 h. […] The absorption at a wavelength of 540 nm was measured. The IC50 (μM) of the compound was calculated using Logit method.

[3] = test system: three kinds of tumor cells (A549, Hela, A431); assay: Cytotoxicity test, summary over the three tumor cell lines; type: cell-based, human; details: compared with positive control Sunitinib
Description: (§1) Cytotoxicity of the compounds of the present invention was tested with human non-small cell lung cancer cells A549, human cervical cancer Hela cells, human skin cancer cells A431. The test was performed by referring to the method described by Rusnak et al (Rusnak D. W., et al., Cell Prolif., 2007, 40, 580-94).
(§2) In Dulbecco's Modified Eagle Medium (DMEM) comprising 10% fetal bovine serum, 2 mM glutamine and non-essential amino acids, cells were cultured at 37° C. in 5% CO2 cell incubator. Trypsin/ethylenediamine tetraacetic acid (EDTA) were used to harvest cells in cell culture bottle. The cells were added to a 96-well cell culture plate, 4000/well (0.1 ml medium), adhering wall overnight, 0.1 ml of the diluted solution of the compounds to be tested was added, the final concentration of DMSO was 0.25%. The cell culture plate was incubated at 37° C., 5% CO2 conditions for 72 h. The change of cellular morphology was observed under microscope, and then 50 μl of 50% (mass/volume) trichloroacetic acid (TCA) was added to each well to fix cells. The final concentration of TCA was 10%. It stood for 5 min, than was placed in 4° C. refrigerator for 1 h, the wells of the culture plate were washed with deionized water for 5 times to remove TCA, drained, dried in air until no wet trace was observed. 100 μl of 0.4% (mass/volume) SRB was added to each well, stood at room temperature for 10 min. The liquid in each well was discarded, and then the wells were washed with 1% acetic acid for 5 times, dried in air, extracted with 150 μl of 10 mM Tris base (trihydroxymethylaminomethane, pH 10.5). The absorption at a wavelength of 540 nm was measured. The IC50 (μM) of the compound was calculated using Logit method.

[4] = test system: human colon cancer HT 29 transplanted tumor; assay: Nude mice transplanted tumor test; type: in vivo, female Balb/cA nude mice; design: key to d21 Vave ± SD (average tumor volume): tumor volume TV = ½×a×b² (a, b = major, minor diameter), in mm³; details: for Dead animal number: dead/total animals; for inhibition in vivo at 80 mg/kg: Mus musculus, HT-29, po, 504 h, (1−T/C)×100%, read-out: Tumor inhibition rate d21 (%); for inhibition in vivo at 80 mg/kg / d21 Wave ± SD (average bodyweight of nude mice) / d21 Vave ± SD (average tumor volume) / d21 RTV ± SD (relative tumor volume): d21; for d0 Wave ± SD (average bodyweight of nude mice): d0, at grouping before administration (baseline); for d21 Vave ± SD (average tumor volume): HT 29 in nude mice; for d21 RTV ± SD (relative tumor volume): RTV=Vt/V0
Description: The nude mice transplanted tumor test used female Balb/cA nude mice, and tumor strains were human colon cancer HT 29 strains.
Under sterile condition, eugonic tumor tissues stage were cut into pieces of about 1.5 mm^3, and inoculated at right axillary fossa of the nude mice. The transplanted tumor diameter was measured by vernier caliper, and the animals were randomly grouped after the tumors grew to about 120 mm^3. The positive control group and the compounds group in a dosage of 80 mg/kg were administered intragastrically each day for consecutive 20 days. The negative control group was given equivalent amount of injection water containing 0.1% Tween 80. Tumor diameters and the bodyweight of mice were measured 2-3 times every week. The evaluation indexes observed in the test include relative tumor proliferation rate, bodyweight and general states. The formulation for calculating tumor volume (TV) is: TV=½×a×b^2, wherein a, b represent major diameter and minor diameter of tumor; Relative tumor volume (RTV) was calculated according the results of measurement by the following formula: RTV=Vt/V0, wherein V0 is tumor volume measured when dividing groups for administration, and Vt is tumor volume measured after each administration.

[5] = Cytotoxicity test (SRB), A549; type: cell-based; details: human, A549 non-small cell lung cancer cells
Description: as §1, §2

[6] = Cytotoxicity test (SRB), A431; type: cell-based; details: human, A431 skin cancer cells
Description: as §1, §2

[7] = 80 mg/kg intragastrically each day for 20 days
[8] = 80 mg/kg intragastrically each day for 20 days, in mm³ (unit assumed)

Compound | inhibition at 0.2 µg/mL [1] | inhibition at 1 µg/mL [1] | inhibition at 5 µg/mL [1] | IC50 at 72 h [2] | Cytotoxicity to tumor cells (in words) [3] | Dead animal number [4, 7] | inhibition in vivo at 80 mg/kg [4, 7] | d0 Wave ± SD (average bodyweight of nude mice) [4] | d21 Wave ± SD (average bodyweight of nude mice) [4, 7] | d21 Vave ± SD (average tumor volume) [4, 8] | d21 RTV ± SD (relative tumor volume) [4, 7] | IC50 at 72 h [5] | IC50 at 72 h [6] | d21 Vave ± SD (average tumor volume) [4, 7] | States of mice / toxicity signs (in words) [4, 7] | Bodyweight of mice after administration (in words) ([4]; mouse, in vivo)
CCN(CC)CCC(=O)Nc1c(C)[nH]c(/C=C2\C(=O)Nc3ccc(Br)cc32)c1C [Compound 3, N-{5-[5-bromo-2-oxo-1,2-dihydro-indol-(3Z)-ylidenemethyl]-2,4-dimethyl-1H-pyrrol-3-yl}-3-(N,N-diethylamino)propionamide] | 93% | 100% | 100% | 5.08 µM | certain toxicity to some cells | 0/6 | 86.4% | 19.3 ± 0.41 | 17.3 ± 0.56 | 120.6 ± 40.2 | 0.98 ± 0.36 | > 30 µM | > 30 µM |  |  | 
Cc1[nH]c(/C=C2\C(=O)Nc3ccc(F)cc32)c(C)c1NC(=O)CCN(C)C [Compound 6, N-{5-[5-fluoro-2-oxo-1,2-dihydro-indol-(3Z)-ylidenemethyl]-2,4-dimethyl-1H-pyrrol-3-yl}-3-(N,N-dimethylamino)propionamide] | 92% | 100% | 100% | 8.08 µM | certain toxicity to some cells | 0/6 | 84.7% | 18.7 ± 0.38 | 20.4 ± 0.49 | 130.7 ± 37.4 | 1.10 ± 0.38 | > 30 µM | > 30 µM |  |  | 
Cc1[nH]c(/C=C2\C(=O)Nc3ccc(F)cc32)c(C)c1NC(=O)CN1CCOCC1 [Compound 19, N-{5-[5-fluoro-2-oxo-1,2-dihydro-indol-(3Z)-ylidenemethyl]-2,4-dimethyl-1H-pyrrol-3-yl}-2-(morpholin-4-yl)acetamide] | 89% | 100% | 100% | > 30 µM | certain toxicity to some cells |  |  |  |  |  |  | > 30 µM | 7.6 µM |  |  | 
Cc1[nH]c(/C=C2\C(=O)Nc3ccc(F)cc32)c(C)c1NC(=O)CN(C)C [Compound 22, N-{5-[5-fluoro-2-oxo-1,2-dihydro-indol-(3Z)-ylidenemethyl]-2,4-dimethyl-1H-pyrrol-3-yl}-2-(N,N-dimethylamino)acetamide] | 90% | 100% | 100% | > 30 µM |  | 0/6 | 88.1% | 19.7 ± 0.38 | 20.1 ± 0.35 | 104.6 ± 43.6 | 0.86 ± 0.54 | > 30 µM | > 30 µM |  |  | 
CCN(CC)CC(=O)Nc1c(C)[nH]c(/C=C2\C(=O)Nc3cc(C(F)(F)F)ccc32)c1C [Compound 24, N-{5-[6-trifluoromethyl-2-oxo-1,2-dihydro-indol-(3Z)-ylidenemethyl]-2,4-dimethyl-1H-pyrrol-3-yl}-2-(N,N-diethylamino)acetamide] | 98% | 100% | 100% | 3.56 µM |  | 0/6 | 64.9% | 18.6 ± 0.36 | 17.9 ± 0.58 | 298.5 ± 55.8 | 2.52 ± 0.23 | > 30 µM | 8.89 µM |  |  | 
CCN(CC)CC(=O)Nc1c(C)[nH]c(/C=C2\C(=O)Nc3ccc([N+](=O)[O-])cc32)c1C [Compound 26, N-{5-[5-nitro-2-oxo-1,2-dihydro-indol-(3Z)-ylidenemethyl]-2,4-dimethyl-1H-pyrrol-3-yl}-2-(N,N-diethylamino)acetamide] | 93% | 100% | 100% | 4.62 µM |  | 0/6 | 64.8% | 19.3 ± 0.55 | 20.5 ± 0.35 |  | 2.53 ± 0.43 | > 30 µM | > 30 µM | 305.6 ± 46.7 |  | 
CCN(CC)CC(=O)Nc1c(C)[nH]c(/C=C2\C(=O)Nc3ccc(NC(C)=O)cc32)c1C [Compound 28, N-{5-[5-acetylamino-2-oxo-1,2-dihydro-indol-(3Z)-ylidenemethyl]-2,4-dimethyl-1H-pyrrol-3-yl}-2-(N,N-diethylamino)acetamide] | 90% | 100% | 100% | > 30 µM |  | 0/6 | 77% | 18.8 ± 1.01 | 19.5 ± 0.86 | 204.3 ± 52.7 | 1.65 ± 0.62 | > 30 µM | > 30 µM |  |  | 
CCN(CC)CCNC(=O)c1c(C)[nH]c(/C=C2\C(=O)Nc3ccc(F)cc32)c1C [Sunitinib, reference compound] | 95% | 100% | 100% | 2.03 µM |  | one tumor-bearing mouse died and 1/6 | 88.5% | 19.4 ± 0.44 |  | 129.6 ± 45.8 |  | 11.5 µM | 1.93 µM |  | yellowing skin and blood in excrement | decreased significantly
